Consider 84 compounds from PubChem BioAssay AID1194 (EPA DSSTox, 2008).

Activity calls are given as the source filed them.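 Rule for the calls: active = chemicals rated mutagenic or weakly mutagenic in the Salmonella bacterial test by one literature review, or positive overall by another; inconclusive = no clear call, values can overlap the other calls; inactive = the rest.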

This series has as its system Salmonella typhimurium Ames mutagenicity, literature compiled. Briefly: DSSTox (CPDBAS) Carcinogenic Potency Database Salmonella Mutagenicity. From the text:
The Carcinogenic Potency Database (CPDB) is a unique and widely used international resource of the results of over 6500 chronic, long-term animal cancer tests on over 1500 chemical substances. The CPDB provides easy access to the bioassay literature, with qualitative and quantitative analyses of both positive and negative experiments that have been published over the past 50 years in the general literature and by the National Cancer Institute/National Toxicology Program. The CPDB standardizes the diverse literature of cancer bioassays that vary widely in protocol, histopathological examination and nomenclature, and in the published author's choices of what information to provide in their papers. Results are reported in the CPDB for tests in rats, mice, hamsters, dogs, and nonhuman primates, and are based on the most positive result among all experiments for each sex-species. The DSSTox CPDBAS (all species) file incorporates data from the CPDB Summary Tables for the full list of over 1500 chemical substances tested in at least one species.
A chemical is classified within the CPDB as mutagenic, i.e. "active", in the Salmonella assay if it was evaluated overall as either "mutagenic" or "weakly mutagenic" by Zeiger [Zeiger, E. (1997) Genotoxicity Database. In: Gold and Zeiger, Eds. Handbook of Carcinogenic Potency and Genotoxicity Databases. Boca Raton, FL: CRC Press, pp. 687-729. http://potency.berkeley.edu/CRCbook.html] or as overall "positive" by the EPA Gene-Tox Program [Kier et al. (1986) Mutat. Res. 168: 69-240].
In the case of `CCOC(=O)C1OC1(C)c1ccccc1` (centres undefined), the outcome was “inactive; active”.
As to `COP(=O)(OC)O/C(=C\Cl)c1cc(Cl)c(Cl)cc1Cl`, the outcome is “inactive; active”.
For `CN(C)c1ccc(C(=N)c2ccc(N(C)C)cc2)cc1` the value was “active”.
Consider `CN(C)N`, for which the result was active.
In the case of `COc1ccc(N)c(OC)c1`, the outcome was “active; inactive”.
For `C=CC(=O)NCO` the value was “inactive”; for `O=NN1CCCCCCC1`, “active; inactive”.
As to `ClC(Cl)=C(Cl)Cl`, the outcome is “inactive; active”.
Regarding `CCCCN(CCCC)N=O`, the outcome is “active; inactive”.
As to `Cc1ccc(S(=O)(=O)NC(=O)NN2CCCCCC2)cc1`, the outcome is “inactive; active”.
For `ClCC1CO1` (centres undefined), the outcome is “active; inactive”.
As for `F`, the outcome is “inactive; active”.
On to `Cc1cc(-c2ccc(N)c(C)c2)ccc1N`, for which the outcome is “active; inactive”.
For `Nc1cc([N+](=O)[O-])ccc1C(=O)O`, the outcome was active.
For the compound `O=c1ccc2ccccc2o1`, the outcome was “active; inactive”.
For the compound `CCC[CH2][Sn]([CH2]CCC)([O]C(C)=O)[O]C(C)=O`, the result was inactive.
For `Nc1nc(N)nc(N)n1`, the outcome was “inactive; active”.
Turning to `O=C(O)c1ccc([N+](=O)[O-])cc1`, the outcome was active.
With `CN(C)c1ccc(N=NS(=O)(=O)O)cc1` the entry was “active; inactive”; with `CC(=O)Nc1cccc2c1-c1ccccc1C2`, “active; inactive”.
With `O=C1C(Cl)=C(Cl)C(=O)C(Cl)=C1Cl` the entry was “active”; with `C=CC(=O)OCC`, “inactive”.
Take `O=S(=O)(O)c1ccc(N=Nc2cc(S(=O)(=O)O)c3ccccc3c2O)c2ccccc12`: the outcome was “active; inactive”.
Turning to `FC(F)(F)CCl`, the result was inactive.
In the case of `O=P(OCCCl)(OCCCl)OCCCl`, the outcome was inactive.
For `Nc1cccc2c(N)cccc12` the value was “active”; for `Cc1nc(N)cc2[nH]c3ccccc3c12`, “active”.
For `OO` the value was “active”.
For `O=C(Nc1nc(-c2ccc([N+](=O)[O-])o2)cs1)C(F)(F)F` the value was “active”.
With `CN(N=O)C(N)=O`, the result was active.
On to `O=C1c2ccccc2-c2ccc3c4c(ccc1c24)-c1ccccc1C3=O`, for which the outcome is “inactive; active”.
On to `Nc1ccc([N+](=O)[O-])cc1N`, for which the outcome was active.
For `CSCCC(N)C(=O)O` (centres undefined) the value was “inactive; active”; for `CC#N`, “inactive”.
Turning to `c1ccc2n[nH]nc2c1`, the outcome is “active; inactive”.
For the compound `Nc1nc(-c2ccc([N+](=O)[O-])o2)cs1`, the result was active.
For `CC(C)(c1ccc(O)cc1)c1ccc(O)cc1`, the outcome was inactive.
`CC1CO1` (centres undefined): the result was active.
As to `CC1CCC(C(C)C)C(O)C1` (centres undefined), the outcome was “inactive; active”.
With `CN(N=O)c1cccnc1` the entry was “inactive; active”; with `O=C1C2(Cl)C3(Cl)C4(Cl)C(Cl)(Cl)C5(Cl)C3(Cl)C1(Cl)C5(Cl)C24Cl` (centres undefined), “inactive; active”; with `Cc1cc2ncccc2c2nc(N)n(C)c12`, “active”.
In the case of `O=C(O)CC[N+](=O)[O-]`, the outcome is “active; inactive”.
With `ClC(Cl)C(Cl)Cl` the entry was “inactive; active”.
`NNC(=O)c1ccncc1`: the outcome is “active; inactive”.
For `CCN(CC)N=O` the value was “active; inactive”.
With `[Cd+2].[Cl-].[Cl-]`, the outcome is “inactive; active”.
On to `Cn1cc[nH]c1=S`, for which the outcome was “inactive; active”.
As for `CCC1(c2ccccc2)C(=O)N=C(O)NC1=O` (centres undefined), the result was inactive.
For the compound `O=S(=O)(c1ccc(Cl)cc1)c1ccc(Cl)cc1`, the outcome was inactive.
Regarding `O=C1O[C@H]([C@H](O)CO)C(O)=C1O`, the result was inactive.
Consider `C=CC(=O)c1ccc2c(c1)OCO2`, for which the outcome was “inactive; active”.
Consider `N#Cc1c(Cl)c(Cl)c(Cl)c(C#N)c1Cl`, for which the outcome was inactive.
With `O`, the outcome was inactive.
In the case of `Cc1ccc2ncccc2c1`, the outcome was active.
Take `O=C1N(CCO)CCN1/N=C/c1ccc([N+](=O)[O-])o1`: the result was active.
As for `C=CC(O)c1ccc(OC)cc1` (centres undefined), the outcome is “inactive; active”.
In the case of `Clc1ccccc1`, the outcome was “inactive; active”.
In the case of `CCCCCCN(N=O)C(N)=O`, the outcome was active.
`C[C@]12C=CC(=O)C=C1CC[C@@H]1[C@@H]2C(=O)C[C@@]2(C)[C@H]1CC[C@]2(O)C(=O)CO`: the outcome was active.
As to `CN(Cc1cnc2nc(N)nc(N)c2n1)c1ccc(C(=O)N[C@@H](CCC(=O)O)C(=O)O)cc1`, the result was inactive.
As for `COc1cc2c(c3oc(=O)c4c(c13)CC[C@H]4O)[C@@H]1C=CO[C@H]1O2`, the result was active.
With `Cc1cccc2cccnc12` the entry was “active”; with `C1OC1C1CO1` (centres undefined), “active”; with `CC1CN(N=O)CC(C)O1` (centres undefined), “active”.
Regarding `O=CNc1nc(-c2ccc([N+](=O)[O-])o2)cs1`, the outcome is “active; inactive”.
As for `CCCN(CCC)S(=O)(=O)c1ccc(C(=O)O)cc1`, the outcome is “inactive; active”.
For `CCOc1ccc(NC(C)=O)cc1[N+](=O)[O-]` the value was “active; inactive”.
With `c1cc(OCC2CO2)cc(OCC2CO2)c1` (centres undefined), the outcome was active.
Regarding `Cc1ccc2c(c1N)C(=O)c1ccccc1C2=O`, the result was active.
Consider `O=S1OCC2C(CO1)C1(Cl)C(Cl)=C(Cl)C2(Cl)C1(Cl)Cl` (centres undefined), for which the outcome is “inactive; active”.
On to `CCN(Cc1cccc(S(=O)(=O)[O-])c1)c1ccc(C(=C2C=CC(=[N+](C)C)C=C2)c2ccc(N(CC)Cc3cccc(S(=O)(=O)O)c3)cc2)cc1`, for which the outcome was active.
Regarding `CNC[C@H](O)c1ccc(O)c(O)c1`, the outcome is “inactive; active”.
Turning to `O=CCCCC=O`, the outcome was active.
Take `Cc1ccccc1S(N)(=O)=O`: the result was inactive.
With `CC(I)C1OCC(CO)O1` (centres undefined) the entry was “active”.
With `NNCCc1ccccc1`, the outcome is “active; inactive”.
On to `Cc1ccc(N)cc1`, for which the outcome was active.
`NC(=S)Nc1ccccc1`: the outcome was inactive.
On to `CN(C)C(=S)SSC(=S)N(C)C`, for which the result was active.
For `Nc1cc(S(=O)(=O)[O-])cc2cc(S(=O)(=O)[O-])c(N=Nc3ccc(-c4ccc(N=Nc5c(S(=O)(=O)[O-])cc6cc(S(=O)(=O)[O-])cc(N)c6c5O)c(O)c4)cc3O)c(O)c12.[Cu].[Cu].[Na+].[Na+].[Na+].[Na+]` the value was “inactive; active”; for `CCN(CC)C(=S)S`, “inactive”.
Take `O=C(O)[C@@H]1[C@H](C(=O)O)[C@@]2(Cl)C(Cl)=C(Cl)[C@]1(Cl)C2(Cl)Cl`: the outcome is “inactive; active”.
For `Nc1nc(N)nc(-c2ccc([N+](=O)[O-])o2)n1` the value was “active”.
